Converted amounts (≈) assume the structure as drawn.
Experiments:
[1] = tested on: adult-derived regenerative pluripotent transitional blastomere-like stem cells; assay: differentiation of Tr-BLSCs after exposure to dexamethasone; type: cell-based; details: extended exposure to a range of dexamethasone concentrations
From the text: After extended exposure to a range of dexamethasone concentrations, adult-derived regenerative pluripotent transitional blastomere-like stem cells differentiated into more than 50 discrete cell types.

[2] = solubility of dexamethasone; type: physicochemical
Protocol: Dexamethasone solution, pH 7.4: This is typically made up in absolute ethanol (EtOH) because it is not soluble in water or media. Weigh out 0.039 gm of Dexamethasone (Dex, catalog #D-1756, Sigma) and add to 10 ml of absolute EtOH. This will make a 1×10^−2 M stock solution. Store this solution at −20° C. This is the most concentrated solution of Dex that can be made with complete solubility. Add 1 ml of the stock Dex solution made above to 9-ml Opti-MEM I medium with Glutamax. Aliquot 9 ml of this solution as 500 μl quantities in 2 ml cryovials and store at −20° C. Label these tubes as […]. Take the remaining 1 ml of 10^−6M Dex and add to 9 ml of Opti-MEM I medium with Glutamax. Aliquot 9 mls and reserve 1 ml as before. Label these tubes as 1×10^−7M Dex. Take the remaining 1 ml of 10^−7M Dex and add to 9 ml of Opti-MEM I medium with Glutamax. Aliquot 9 mls and reserve 1 ml as before. Label these tubes as 1×10^−8M Dex. Take the remaining 1 ml of 10^−8M Dex and add to 9 ml of Opti-MEM I medium with Glutamax. Aliquot 9 mls and reserve 1 ml as before. Label these tubes as 1×10^−9M Dex. Take the remaining 1 ml of 10^−9M Dex and add to 9 ml of Opti-MEM I medium with Glutamax. Aliquot all 10 mls. Label these tubes as 1×10^−10M Dex. These aliquots will bring 500 mls of media to the concentration of Dex labeled on the tube. Store the cryovials at −20° C.

[3] = tested on: adult totipotent blastomeric-like stem cells; assay: induction of blastomeric-like stem cells in culture; type: cell-based, rat; details: for response to progression agents: lineage-uncommitted BLSCs
From the text: 1961; Rohme 1981; Young and Black, 2005a].
FIG. 7. Blastomeric-like stem cells (BLSCs) harvested from male Sprague-Dawley out bred rat 0001 and propagated from a single cell derived by serial dilution clonogenic analysis, then genomically labeled with LacZ to synthesize the beta-galactosidase gene product. Clone designated as Scl-44beta. […] B-L is phase contrast microscopy to show unstained cells in field of view. […] Original magnification 200×.
FIG. 8. Blastomeric-like stem cells (BLSCs) harvested from male Sprague-Dawley out bred rat 0001 and propagated from a single cell derived by serial dilution clonogenic analysis, then genomically labeled with LacZ to synthesize the beta-galactosidase gene product. Clone designated as Scl-44beta.

[4] = tested on: adult pluripotent epiblast-like stem cells; assay: induction of epiblast-like stem cells in culture; type: cell-based, rat; details: for response to progression agents: lineage-uncommitted ELSCs

Row | Compound | response to progression agents [3] | response to progression agents [4] | further results
1 | C[C@@H]1C[C@H]2[C@@H]3CCC4=CC(=O)C=C[C@]4(C)[C@@]3(F)[C@@H](O)C[C@]2(C)[C@@]1(O)C(=O)CO [dexamethasone, Dexamethasone] | – | – | discrete cell types formed [1]: more than 50 discrete cell types; solubility in water or media [2]: not soluble; solubility ([2]; absolute ethanol, organic solvent or mixture, thermodynamic from solid, absolute EtOH, read-out: most concentrated solution with complete solubility): 10 mM (≈ 3920 µg/mL)
2 | IGF-I: progression agent | unresponsive | unresponsive | –
3 | IGF-II: progression agent | unresponsive | unresponsive | –
4 | hepatocyte growth factor: lineage-induction agent | – | – | response to lineage-induction agent ([3]; BLSCs): forming cells belonging to the endodermal lineage; response to lineage-induction agent ([4]; ELSCs): forming cells belonging to the endodermal lineage
5 | insulin: progression agent | unresponsive | unresponsive | induction in the presence of insulin ([3]; clone Scl-44beta, insulin at 2 micrograms per ml, absence of inhibitors): no induction occurs
